How the values were obtained:
[1] = Inhibition of Trypanosoma brucei methionyl tRNA synthetase using L-methionine as substrate preincubated for 15 mins followed by substrate addition measured after 120 mins in presence of ATP by Kinase Glo chemiluminescence assay
Trypanosoma brucei = assay: Antitrypanosomal activity against Trypanosoma brucei 427 bloodstream forms after 48 hrs by alamar blue assay; type: functional; settings: Trypanosoma brucei, 427, 48 h
HepG2 = assay: Cytotoxicity against human HepG2 cells after 48 hrs by alamar blue assay; type: cell-based; settings: hepg2, 48 h
[2] = Cmax in mouse at 50 mg/kg, administered through oral gavage by LC-MS analysis; type: ADME, organism-based; parameters: dose 50 mg/kg, route oral; settings: in vivo
[3] = Cytotoxicity against human CRL8155 cells after 48 hrs by alamar blue assay; type: cell-based; settings: crl8155, 48 h
[4] = AUC in mouse at 50 mg/kg, administered through oral gavage by LC-MS analysis; type: ADME, organism-based; settings: in vivo

Structure (SMILES) | IC50 [1] | EC50 (Trypanosoma brucei; read-out: EC50) | CC50 (HepG2) | Cmax [2] | CC50 [3] | EC50 (Trypanosoma brucei; read-out: pEC50 (converted)) | AUC [4]
CN(CCNC(CO)c1cc(Cl)cc(Cl)c1)c1nc2nc(Cl)ccc2[nH]1 (configuration not stated) | 101 nM | 995 nM | – | – | – | – | –
CCNc1c(Cl)cc(Cl)cc1CN[C@H]1CCCN(c2nc3nc(Cl)ccc3[nH]2)C1 | < 50 nM | 359 nM | – | – | – | – | –
Oc1c(Cl)cc(Cl)cc1CN[C@H]1CCCN(c2nc3nc(Cl)ccc3[nH]2)C1 | < 50 nM | 241 nM | – | – | – | – | –
N#Cc1cc(Cl)cc(CN[C@H]2CCCN(c3nc4nc(Cl)ccc4[nH]3)C2)c1 | < 50 nM | 111 nM | – | – | – | – | –
COc1c(Br)cc(Br)cc1CN[C@H]1CCCN(c2nc3nc(Cl)ccc3[nH]2)C1 | < 50 nM | 334 nM | – | – | – | – | –
CN(CCNC(C(N)=O)c1cc(Cl)cc(Cl)c1)c1nc2nc(Cl)ccc2[nH]1 (configuration not stated) | 75 nM | 4490 nM | – | – | – | – | –
Clc1cc(Cl)c(Cl)c(CN[C@H]2CCCN(c3nc4nc(Cl)ccc4[nH]3)C2)c1 | < 50 nM | 354 nM | – | – | – | – | –
Clc1cc(Br)cc(CN[C@H]2CCCN(c3nc4nc(Cl)ccc4[nH]3)C2)c1 | < 50 nM | 71 nM | > 50000 nM | 19.2 µM | 43000 nM | 63.1 nM | 78.1 µM·h
C=CCOc1c(Cl)cc(Cl)cc1CN[C@H]1CCCN(c2nc3nc(Cl)ccc3[nH]2)C1 | < 50 nM | 326 nM | – | – | – | – | –
Clc1cc(Cl)c(OC2CC2)c(CN[C@H]2CCCN(c3nc4nc(Cl)ccc4[nH]3)C2)c1 | 389 nM | 3120 nM | – | – | – | – | –
COc1c(Cl)cc(Cl)cc1CN[C@H]1CCCN(c2nc3nc(Cl)ccc3[nH]2)C1 | < 50 nM | 357 nM | – | – | – | – | –
Clc1ccc2nc(N3CCC[C@H](NCc4cc(Br)cc(Br)c4)C3)[nH]c2n1 | < 50 nM | 85 nM | 39100 nM | – | 47600 nM | 79.4 nM | –
COC(=O)C(NCCN(C)c1nc2nc(Cl)ccc2[nH]1)c1cc(Cl)cc(Cl)c1 (configuration not stated) | 86 nM | 5270 nM | – | – | – | – | –
CC(C)Oc1c(Cl)cc(Cl)cc1CN[C@H]1CCCN(c2nc3nc(Cl)ccc3[nH]2)C1 | 305 nM | 1700 nM | – | – | – | – | –
CCOc1c(Cl)cc(Cl)cc1CNCCN(C)c1nc2nc(Cl)ccc2[nH]1 | < 50 nM | 314 nM | – | – | – | – | –
CN(CCN[C@@H]1CCNc2c(Cl)cc(Cl)cc21)c1nc2nc(Cl)ccc2[nH]1 | < 50 nM | 4 nM | 30600 nM | 1.3 µM | 18500 nM | 3.98 nM | 2.33 µM·h
CCOc1c(Br)cc(Cl)cc1CN[C@H]1CCCN(c2nc3nc(Cl)ccc3[nH]2)C1 | < 50 nM | 230 nM | – | – | – | – | –
CCCOc1c(Cl)cc(Cl)cc1CN[C@H]1CCCN(c2nc3nc(Cl)ccc3[nH]2)C1 | < 50 nM | 827 nM | – | – | – | – | –
Clc1cc(Cl)c2c(c1)C(N[C@H]1CCCN(c3nc4nc(Cl)ccc4[nH]3)C1)CCN2 (some centres not stated) | 89 nM | 57 nM | 40200 nM | 14.7 µM | 19000 nM | 50.1 nM | 15.8 µM·h
CCOc1c(Br)cc(Br)cc1CN[C@H]1CCCN(c2nc3nc(Cl)ccc3[nH]2)C1 | < 50 nM | 40 nM | 18700 nM | 2.1 µM | 10500 nM | 39.8 nM | 3.03 µM·h
Clc1cc(Cl)c(OCC2CC2)c(CN[C@H]2CCCN(c3nc4nc(Cl)ccc4[nH]3)C2)c1 | < 50 nM | 511 nM | – | – | – | – | –
CCOc1c(Cl)cc(Cl)cc1CN[C@H]1CCCN(c2nc3nc(Cl)ccc3[nH]2)C1 | < 50 nM | 111 nM | – | – | – | – | –
